# Measured values taken from patent US8809341B2, “2,4-pyrimidinediamine compounds and uses as anti-proliferative agents” (Rigel Pharmaceuticals, Inc., priority 2003, dated 2014).
# Where two headings read alike, the source gives them in different places.
# How the values were obtained:
# MCF-7 = assay: in vitro antiproliferation assay, MCF-7 (breast/ER positive); assay type: cell-based
# Description: (§1) The IC50 values of various compounds against a various different tumor cell lines were determined using standard in vitro antiproliferation assays. The tumor cell lines tested were as follows: A549 (lung); H1299 (lung), ACHN (kidney/p53 wt), CAKI (renal cell carcinoma), NCI-H460 (lung); HCT116 (colon/p53w0; HELA (cervix/p53 wt), HUH7 (liver/p53 wt), HUVEC (primary endothelial), LNCAP (prostate), HT-29 (colon); MCF-7 (breast); MCF-7 (breast/ER positive), MDA MB435S (breast); MDA MB231 (breast/ER negative), DU145 (prostate); BxPC-3 (pancreatic); SKOV-3 (ovarian); HepG2 (hepatic), NDHF primary normal human dermal fibroblast), SKMEL28 (breast/p53mut), SKMEL5 (breast/p53 wt), U20S (bone) and PC3 (prostate). […] A blank indicates the specified compound was not tested against the specified cell line.
# (§2) Many of the compounds were tested against other cell lines. Their activity is reported in TABLE 15, below, where +”, “−”, “−/+” or “+/−” values are as described for TABLES 1-14. Where the cell line includes a value in a parenthetical, the value indicates the seeding density at which the assay was performed
# HUVEC = assay: in vitro antiproliferation assay, HUVEC (primary endothelial); assay type: cell-based
# Description: as §1, §2
# HUH7 = assay: in vitro antiproliferation assay, HUH7 (liver/p53 wt); assay type: cell-based
# Description: as §1, §2
# HELA = assay: in vitro antiproliferation assay, HELA (cervix/p53 wt); assay type: cell-based
# Description: as §1, §2
# H1299 cells = assay: in vitro antiproliferation assay, H1299 (lung); assay type: cell-based
# Method in brief: (§3)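 IC50 values came from standard antiproliferation testing in cultured tumour cells; the A549 and H1299 lines are of lung origin.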
# MDA MB231 = assay: in vitro antiproliferation assay, MDA MB231 (breast/ER negative); assay type: cell-based
# Description: as §1, §2
# A549 cells = assay: in vitro antiproliferation assay, A549 (lung); assay type: cell-based
# Method in brief: as §3
# U20S = assay: in vitro antiproliferation assay, U20S (bone); assay type: cell-based
# Description: as §1, §2
# SKMEL5 = assay: in vitro antiproliferation assay, SKMEL5; assay type: cell-based
# Description: as §1, §2
# CAKI = assay: in vitro antiproliferation assay, CAKI (renal cell carcinoma); assay type: cell-based
# Description: as §1, §2
# NDHF = assay: in vitro antiproliferation assay, NDHF (primary normal human dermal fibroblast); assay type: cell-based
# Description: as §1, §2
# ACHN = assay: in vitro antiproliferation assay, ACHN (kidney/p53 wt); assay type: cell-based
# Description: as §1, §2
# HCT116 = assay: in vitro antiproliferation assay, HCT116 (colon); assay type: cell-based
# Method in brief: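 IC50 is the reported value, taken from a conventional in vitro antiproliferation assay. Seeding density is indicated by any parenthetical figure attached to the cell line.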
# LNCAP = assay: in vitro antiproliferation assay, LNCAP (prostate); assay type: cell-based
# Description: as §1, §2
# SKMEL28 = assay: in vitro antiproliferation assay, SKMEL28 (breast/p53mut); assay type: cell-based
# Description: as §1, §2
# [1] = tested on: tumors generated from A549 cells; assay: in vivo xenograft experiment, tumors generated from A549 cells; conditions: mice
# Description: Compounds 107, 858, 164, 211 and 156 were tested for their ability to shrink tumors generated from A549 cells in standard xenograft experiments. Compounds 141 and 211 were tested against H1299 tumors.
# PC3 = assay: in vitro antiproliferation assay, PC3 (prostate); assay type: cell-based
# Description: as §1, §2
# [2] = HCT116 (colon), read-out: HCT116
# [3] = Table 5, in vitro antiproliferation, H1299 (lung) cells
# [4] = Table 5, in vitro antiproliferation, A549 (lung) cells
IC50 (HUH7) [µM],IC50 (HELA) [µM],IC50 (SKMEL5) [µM],IC50 (CAKI) [µM],IC50 (ACHN) [µM],IC50 (HCT116; [2]) [µM],IC50 (LNCAP) [µM],IC50 (SKMEL28) [µM],SMILES,IC50 (HUVEC) [µM],IC50 (U20S) [µM],IC50 (NDHF) [µM],also measured
≤ 20,≤ 20,≤ 20,–,≤ 20,> 20,≤ 20,≤ 20,Cc1cc(Nc2ncc(F)c(Nc3ccc4c(c3)OCCO4)n2)cc(C(F)(F)F)c1 [compound 523],≤ 20,≤ 20,≤ 20,IC50 (H1299 cells; [3]): ≤ 20 µM; IC50 (A549 cells; [4]): > 20 µM
≤ 20,≤ 20,≤ 20,≤ 20,≤ 20,> 20,≤ 20,≤ 20,CCOC(=O)c1cc2cccc(Nc3ncc(F)c(Nc4cc(C)cc(C)c4)n3)c2[nH]1 [compound 646],≤ 20,≤ 20,≤ 20,"IC50 (H1299 cells; Table 7, in vitro antiproliferation, H1299 (lung) cells): ≤ 20 µM; IC50 (A549 cells; Table 7, in vitro antiproliferation, A549 (lung) cells): ≤ 20 µM; IC50 (HCT116; Table 7, in vitro antiproliferation, colon cells, read-out: HTC116): ≤ 20 µM"
≤ 20,≤ 20,≤ 20,≤ 20,≤ 20,≤ 20,≤ 20,≤ 20,Cc1cc(Nc2ncc(F)c(Nc3cc(C)c(O)c(Cl)c3)n2)cc(Cl)c1O [compound 942],≤ 20,≤ 20,≤ 20,"IC50 (H1299 cells; H1299 (lung) cells, antiproliferation): ≤ 20 µM; IC50 (A549 cells; A549 (lung) cells, antiproliferation): ≤ 20 µM"

# The remaining lines, values behind:
SMILES,IC50 (HUH7) [µM],IC50 (HELA) [µM],IC50 (SKMEL5) [µM],IC50 (CAKI) [µM],IC50 (ACHN) [µM],IC50 (HCT116; [2]) [µM],IC50 (LNCAP) [µM],IC50 (SKMEL28) [µM],IC50 (HUVEC) [µM],IC50 (U20S) [µM],IC50 (NDHF) [µM],also measured
COC(=O)N1CCN(c2ccc(Nc3ncc(F)c(NC4CCC4)n3)cc2)CC1 [compound 107],≤ 20,≤ 20,≤ 20,≤ 20,≤ 20,> 20,≤ 20,≤ 20,≤ 20,≤ 20,≤ 20,"IC50 (MCF-7; MCF7, seeding density 2K, read-out: MCF7(2K)): ≤ 20 µM; IC50 (MCF-7; MCF7, seeding density 4K, read-out: MCF7(4K)): ≤ 20 µM; IC50 (H1299 cells; IC50 class against H1299 (lung) tumor cells): ≤ 20 µM; IC50 (MDA MB231; MDA-MB-231, seeding density 2K, read-out: MDA-MB-231(2K)): ≤ 20 µM; IC50 (MDA MB231; MDA-MB-231, seeding density 4K, read-out: MDA-MB-231(4K)): ≤ 20 µM; IC50 (A549 cells; IC50 class against A549 (lung) tumor cells): ≤ 20 µM"
CN1CCN(c2ccc(Nc3ncc(F)c(NC4CCCCC4)n3)cc2)CC1.Cl [compound 156],–,–,–,–,–,–,–,–,–,–,–,"Preliminary Results: reduction in tumor size ([1]; 50 mg/kg Bid, daily, 0.9% Saline): 60.4%"
Fc1cnc(Nc2cccc(-c3ncco3)c2)nc1Nc1cc(C2CC2)[nH]n1 [compound 211],–,–,–,–,–,–,–,–,–,–,–,"IC50 (MCF-7; Homo sapiens, MCF7, seeding density 2K, read-out: MCF7(2K)): ≤ 20 µM; IC50 (MCF-7; Homo sapiens, MCF7, seeding density 4K, read-out: MCF7(4K)): ≤ 20 µM; IC50 (HELA; Homo sapiens): ≤ 20 µM; IC50 (H1299 cells; Homo sapiens, NCI-H1299, IC50 class against H1299 (lung) tumor cells): ≤ 20 µM; IC50 (MDA MB231; Homo sapiens, MDA-MB-231, seeding density 2K, read-out: MDA-MB-231(2K)): ≤ 20 µM; IC50 (MDA MB231; Homo sapiens, MDA-MB-231, seeding density 4K, read-out: MDA-MB-231(4K)): ≤ 20 µM; IC50 (A549 cells; Homo sapiens, IC50 class against A549 (lung) tumor cells): ≤ 20 µM; Preliminary Results: reduction in tumor size ([1]; 25 mg/kg bid, 100% DMSO): 23.2%; IC50 (HCT116; Homo sapiens, HCT-116, HCT116 (colon), read-out: HCT116): ≤ 20 µM"
COc1cc(Nc2ncc(F)c(Nc3ccc4c(c3)OCCO4)n2)cc(OC)c1 [compound 512],≤ 20,≤ 20,≤ 20,–,≤ 20,> 20,≤ 20,≤ 20,≤ 20,≤ 20,≤ 20,IC50 (H1299 cells; [3]): ≤ 20 µM; IC50 (A549 cells; [4]): ≤ 20 µM; IC50 (PC3): > 20 µM
